# Source: patent publication US8293528B2, “Peptide compositions and their use in particular in the preparation of pharmaceutical compositions active against the hepatitis C virus” (priority 2002, dated 2012)
# Values joined by “and” are separate entries in the source; they are usually repeats but may differ in a detail not shown here. Identical values can stand only once.
# What was measured:
# HLA-A2.1-transgenic mice = assay: CTL test after immunization with peptides/compositions/epitopes; assay type: in vivo; settings: FIG. 10; 18 nmoles of D peptide versus 60 nmoles of ALY epitope, ALY epitope as target
# Protocol: In order to do this, 2 sub-cutaneous injections were administered into the base of the tail of each mouse, with an interval of 15 days, of a mixture containing 18 nmoles of peptide of the invention and 18 nmoles of the HBV core helper peptide in incomplete Freund's adjuvant (IFA, Brinster et al., Hepatology 2001) or containing 60 nmoles of epitope of the invention and 60 nmoles of the helper peptide in IFA.
# The control mice received only the helper peptide in IFA.
# Fifteen days after the 2nd injection, the cell response was analyzed by isolating the spleen cells (splenocytes) of mice and a CTL test and an ELISPOT test were carried out as follows:
# For the CTL test, these splenocytes were cultured in 24-well plates in the presence of 5 μM of the peptide or epitope of interest and 10 U of recombinant murine interleukin-2 (Brinster et al., Hepatology 2001) per ml in alpha minimum essential medium (αMEM) for 5 days. […] The specific cytotoxic activity of the effective cells was determined by measuring, after 4 hours of incubation with the target cells, the Cr^51 released following the lysis of the target cells using a γ-Cobra II (Packard, Rungis, France) counting device. The spontaneous and maximum release from wells containing either the medium alone, or the lysis buffer (HCl 1N) were determined. […]
# [1] = tested on: blood cells from 3 patients infected by the hepatitis C virus of genotype 1 and having an HLA of type HLA-A2+; settings: ELISPOT, 48 hours, positive if more than 20 spots per well
# Protocol: The ability of blood cells from 3 patients infected by the hepatitis C virus of genotype 1 and having an HLA of type HLA-A2+ to produce gamma-interferon cytokines and interleukin-10, in response to two peptides predicted by software developed by bioMerieux (Centre d'Immunologie de Pierre Fabre) to bind to the HLA-A2 molecule was tested.
# The assay of these cytokines reflects the ability of the peptides to induce immune responses to cell mediation, either of type 1 (gamma interferon), or of type 2 (interleukin-10)
# After 48 hours of incubation at 37° C., a period during which the cells specific to the peptides will locally produce cytokines which will bind to the specific antibodies, anti-gamma interferon or anti-interleukin-10 antibodies, alkaline phosphatase coupled to avidine and the alkaline phosphatase substrate (NBT/BCIP) were added.
# The violet-blue spots, which represent each gamma-interferon or interleukin-10-producing cell were counted, using Zeiss's ELISPOT automated reader (KS Elispot) and only considered positive when the number of spots per well was greater than 20.
# [2] = tested on: Mice transgenic for the molecule HLA.A2.1; assay: ELISPOT after immunization of transgenic mice with predicted epitopes; assay type: in vivo; settings: three individual mice; two injections of epitope 60 μM + T-helper peptide in IFA; two weeks after last immunization
# Protocol: Mice transgenic for the molecule HLA.A2.1 and devoid of murine class 1 molecules (Pascolo S., et al., 1997, J. Exp Med., 185: 2043-2051) were immunized with the FLL and ILA epitopes predicted as being class I epitopes restricted by the molecule HLA.A2.1.
# In order to do this, the mice were immunized in the base of their tails with a peptide mixture containing one of the above epitopes (60 μM) and the T-helper peptide (Lone, Y. C. et al., (1998), J. Immunother. 21:283-294) (60 μM) emulsified in incomplete Freund's adjuvant (Sigma St Louis, Mo.). The mice received two injections with an interval of two weeks and the immune responses were analyzed two weeks after the last immunization as indicated in Example 1 (Elispot).
Substance,lysis effectiveness (HLA-A2.1-transgenic mice),production of gamma interferon [1],production of interleukin-10 [1],Number of spots/10^6 cells (gamma-interferon-producing cells) [2]
"D peptide: D peptide of sequence SEQ ID NO: 176, in NS5b between positions 2573 and 2601 of the viral polyprotein",identical lysis effectiveness,–,–,–
FLATCVNGV,–,little if any production,little if any production,–
ILAGYAGAGV,–,–,–,5 spots/10^6 cells and 2 spots/10^6 cells and 0 spots/10^6 cells
LLGCIITSL,–,significant production of gamma interferon in 2 of the 3 patients,significant production,–
